How the values were obtained:
CRBN/DDB1 = CRBN/DDB1 (Homo sapiens (Human), UniProt Q96SW2); assay: IC50 measurements for binding to CRBN/DDB1 (HTRF); details: His tagged CRBN+DDB, Cy5-labeled Thalidomide probe, one hour
How it was run: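 HTRF competition binding with 2 nM His-tagged CRBN-DDB1 complex, 60 nM Cy5-thalidomide probe and 0.4 nM anti-His Tb cryptate in 50 mM HEPES pH 7.5, 1 mM TCEP, 0.01% Brij-35, 50 mM NaCl, 0.1% BSA. Read after 1 h at room temperature; IC50 from four-parameter dose-response fit.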

IKZF2 = IKZF2 (Homo sapiens (Human), UniProt Q96SW2+Q9UKS7); assay: In vitro IKZF2 HiBit Assay (HEK293T Flp-in-HiBiT cells); assay type: cell-based; details: HEK293T Flp-in-HiBiT cells, 6 hrs incubation; for DC50: read-out: IKZF2 HiBit DC50; for Dmax: HEK-293T, read-out: IKZF2 HiBit Dmax (%)
Chain of IKZF2 (Q9UKS7 whole entry): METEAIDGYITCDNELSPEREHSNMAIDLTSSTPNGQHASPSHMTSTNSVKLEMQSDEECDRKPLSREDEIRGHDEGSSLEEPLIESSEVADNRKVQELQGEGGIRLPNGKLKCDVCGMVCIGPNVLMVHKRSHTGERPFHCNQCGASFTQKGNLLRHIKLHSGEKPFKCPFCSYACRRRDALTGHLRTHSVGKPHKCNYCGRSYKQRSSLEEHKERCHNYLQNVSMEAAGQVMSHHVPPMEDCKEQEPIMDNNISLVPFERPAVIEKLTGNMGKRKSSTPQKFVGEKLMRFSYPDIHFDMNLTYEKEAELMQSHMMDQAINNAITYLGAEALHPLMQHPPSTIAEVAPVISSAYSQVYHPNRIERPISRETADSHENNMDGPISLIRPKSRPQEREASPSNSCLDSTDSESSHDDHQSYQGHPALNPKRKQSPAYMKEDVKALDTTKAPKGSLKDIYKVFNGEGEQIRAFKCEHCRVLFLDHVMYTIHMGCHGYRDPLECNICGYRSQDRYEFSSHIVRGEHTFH
Chain of IKZF2 (Q96SW2 whole entry): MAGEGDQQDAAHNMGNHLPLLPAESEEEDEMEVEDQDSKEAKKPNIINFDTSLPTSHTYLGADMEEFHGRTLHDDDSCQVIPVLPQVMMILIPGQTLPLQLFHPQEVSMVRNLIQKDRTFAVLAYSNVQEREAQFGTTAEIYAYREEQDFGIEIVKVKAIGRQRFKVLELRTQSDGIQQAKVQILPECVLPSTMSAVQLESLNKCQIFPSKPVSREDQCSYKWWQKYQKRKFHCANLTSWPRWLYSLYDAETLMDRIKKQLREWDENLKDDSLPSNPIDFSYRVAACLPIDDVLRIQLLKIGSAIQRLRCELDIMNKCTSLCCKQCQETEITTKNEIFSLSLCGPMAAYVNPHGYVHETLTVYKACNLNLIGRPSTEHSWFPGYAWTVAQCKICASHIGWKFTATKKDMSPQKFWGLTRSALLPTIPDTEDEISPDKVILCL
Chain of IKZF2 (Q16531 2-1140 partner): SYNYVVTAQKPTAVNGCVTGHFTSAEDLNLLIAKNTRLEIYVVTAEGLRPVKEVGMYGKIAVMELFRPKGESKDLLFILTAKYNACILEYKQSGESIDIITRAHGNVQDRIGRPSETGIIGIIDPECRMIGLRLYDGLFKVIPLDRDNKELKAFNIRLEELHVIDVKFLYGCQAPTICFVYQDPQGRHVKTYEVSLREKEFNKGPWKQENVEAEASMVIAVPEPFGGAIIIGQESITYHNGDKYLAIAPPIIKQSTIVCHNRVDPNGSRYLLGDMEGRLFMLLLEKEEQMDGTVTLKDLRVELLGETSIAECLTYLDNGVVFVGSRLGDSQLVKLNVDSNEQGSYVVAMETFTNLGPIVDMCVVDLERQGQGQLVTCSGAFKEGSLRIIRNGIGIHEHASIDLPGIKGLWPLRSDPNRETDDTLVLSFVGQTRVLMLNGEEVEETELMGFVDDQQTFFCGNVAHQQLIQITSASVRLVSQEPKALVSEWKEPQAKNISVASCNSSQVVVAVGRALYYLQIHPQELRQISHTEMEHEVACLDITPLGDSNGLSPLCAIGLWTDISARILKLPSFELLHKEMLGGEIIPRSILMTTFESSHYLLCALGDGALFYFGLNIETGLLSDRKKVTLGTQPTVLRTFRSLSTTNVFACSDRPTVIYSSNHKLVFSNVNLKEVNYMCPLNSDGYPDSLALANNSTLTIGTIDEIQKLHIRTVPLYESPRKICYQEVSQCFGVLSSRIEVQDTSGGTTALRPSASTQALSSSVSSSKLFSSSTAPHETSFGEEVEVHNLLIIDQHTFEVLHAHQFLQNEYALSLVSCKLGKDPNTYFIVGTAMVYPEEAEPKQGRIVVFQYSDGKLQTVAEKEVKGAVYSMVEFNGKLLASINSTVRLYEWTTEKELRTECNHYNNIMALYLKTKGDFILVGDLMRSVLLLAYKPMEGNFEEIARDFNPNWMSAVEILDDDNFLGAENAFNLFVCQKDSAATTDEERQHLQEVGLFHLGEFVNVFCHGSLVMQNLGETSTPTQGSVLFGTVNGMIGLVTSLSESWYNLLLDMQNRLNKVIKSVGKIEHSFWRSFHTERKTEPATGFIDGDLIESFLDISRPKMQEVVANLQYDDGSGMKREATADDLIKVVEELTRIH
How it was run: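 HEK293T Flp-in cells carrying an endogenous N-terminal HiBiT tag on IKZF2 were exposed to compound for 6 h at 0.1% DMSO. The dilution series was 11 doses at 3-fold, diluted from 1 mM. Nano-Glo HiBiT lytic luminescence, normalized to DMSO, gave DC50 for 50% degradation and Dmax across the concentration range, both reported in letter bins.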

IKZF1 = IKZF1 (Homo sapiens (Human), UniProt Q13422+Q96SW2); assay: In vitro IKZF1 HiBit Assay (HEK293T Flp-in-HiBiT-IKZF1 stable cell line); assay type: cell-based; details: HEK293T Flp-in-HiBiT-IKZF1 stable cell line, 6 hrs incubation; for DC50: read-out: IKZF1 HiBit DC50; for Dmax: HEK-293T, read-out: IKZF1 HiBit Dmax (%)
Chain of IKZF1 (Q13422 whole entry): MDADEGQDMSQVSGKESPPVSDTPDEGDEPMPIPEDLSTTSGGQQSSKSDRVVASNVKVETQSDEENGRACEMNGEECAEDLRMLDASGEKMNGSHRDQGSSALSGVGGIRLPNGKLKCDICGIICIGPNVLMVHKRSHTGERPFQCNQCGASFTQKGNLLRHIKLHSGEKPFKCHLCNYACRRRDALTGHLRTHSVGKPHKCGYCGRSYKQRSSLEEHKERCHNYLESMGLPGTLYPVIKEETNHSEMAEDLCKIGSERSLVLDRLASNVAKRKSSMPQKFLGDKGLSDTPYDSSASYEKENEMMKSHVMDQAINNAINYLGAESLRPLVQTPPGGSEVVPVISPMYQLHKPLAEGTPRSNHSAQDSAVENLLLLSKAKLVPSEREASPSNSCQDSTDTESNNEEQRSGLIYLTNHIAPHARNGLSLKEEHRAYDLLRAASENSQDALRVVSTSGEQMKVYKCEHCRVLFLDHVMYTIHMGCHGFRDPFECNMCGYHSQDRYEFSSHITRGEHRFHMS
Chain of IKZF1 (Q96SW2 whole entry): as the sequence (Q96SW2 whole entry) above
Chain of IKZF1 (Q16531 2-1140 partner): as the sequence (Q16531 2-1140 partner) above
How it was run: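 HEK293T Flp-in cells carrying N-terminal HiBiT-tagged IKZF1 were exposed to compound (0.1% DMSO) for 6 h at 3000 cells/well. HiBiT luminescence was read after lytic LgBiT detection. DC50 and Dmax were taken from DMSO-normalized dose-response curves.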

Chain of CRBN/DDB1 (Q96SW2 whole entry, species assumed): as the sequence (Q96SW2 whole entry) above
Chain of CRBN/DDB1 (Q16531 whole entry partner, species assumed): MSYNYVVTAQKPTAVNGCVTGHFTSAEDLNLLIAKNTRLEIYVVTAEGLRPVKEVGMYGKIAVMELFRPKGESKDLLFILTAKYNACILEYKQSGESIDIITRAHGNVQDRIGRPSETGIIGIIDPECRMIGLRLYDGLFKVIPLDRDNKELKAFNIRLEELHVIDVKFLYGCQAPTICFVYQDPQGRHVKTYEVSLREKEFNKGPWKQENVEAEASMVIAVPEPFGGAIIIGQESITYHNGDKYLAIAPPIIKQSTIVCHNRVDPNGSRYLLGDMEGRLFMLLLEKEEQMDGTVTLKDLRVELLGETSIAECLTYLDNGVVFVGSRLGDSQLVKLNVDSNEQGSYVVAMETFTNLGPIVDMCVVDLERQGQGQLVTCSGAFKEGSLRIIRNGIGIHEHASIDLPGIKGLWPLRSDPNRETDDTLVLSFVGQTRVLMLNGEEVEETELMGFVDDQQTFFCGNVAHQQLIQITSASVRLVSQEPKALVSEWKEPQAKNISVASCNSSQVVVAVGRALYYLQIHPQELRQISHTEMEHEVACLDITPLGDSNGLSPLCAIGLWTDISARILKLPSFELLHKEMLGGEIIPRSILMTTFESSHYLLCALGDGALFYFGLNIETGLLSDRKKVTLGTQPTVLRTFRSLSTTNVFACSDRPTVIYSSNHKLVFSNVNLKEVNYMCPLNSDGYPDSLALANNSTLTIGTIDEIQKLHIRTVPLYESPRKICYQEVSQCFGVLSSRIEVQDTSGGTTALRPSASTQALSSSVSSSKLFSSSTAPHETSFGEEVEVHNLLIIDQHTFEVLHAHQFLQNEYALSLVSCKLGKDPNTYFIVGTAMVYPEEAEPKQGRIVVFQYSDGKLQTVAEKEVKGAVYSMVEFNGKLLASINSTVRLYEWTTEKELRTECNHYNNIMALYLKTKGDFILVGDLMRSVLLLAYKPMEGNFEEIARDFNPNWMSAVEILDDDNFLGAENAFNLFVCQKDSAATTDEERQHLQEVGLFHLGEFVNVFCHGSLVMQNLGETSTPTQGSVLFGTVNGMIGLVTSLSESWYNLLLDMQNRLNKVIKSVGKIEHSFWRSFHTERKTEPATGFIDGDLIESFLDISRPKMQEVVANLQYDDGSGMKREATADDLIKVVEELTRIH

SMILES | IC50 (CRBN/DDB1) [nM] | DC50 (IKZF2) [nM] | Dmax (IKZF2) [%] | DC50 (IKZF1) [nM] | Dmax (IKZF1) [%]
O=C1CCC(N2Cc3cc(-c4cc(CN5CCCC5)c5[nH]nc(NC6COC6)c5n4)ccc3C2=O)C(=O)N1 (stereo not drawn) [Example 204, 3-(5-(3-(oxetan-3-ylamino)-7-(pyrrolidin-1-ylmethyl)-1H-pyrazolo[4,3-b]pyridin-5-yl)-1-oxoisoindolin-2-yl) piperidine-2,6-dione] | 1000 to 5000 | 1000 to 10000 | < 20 | > 10000 | < 20
O=C1CCC(N2Cc3cc(-c4cc(CN5CCC(O)CC5)c5cc[nH]c5n4)ccc3C2=O)C(=O)N1 (stereo not drawn) [Example 125, 3-(5-(4-((4-hydroxypiperidin-1-yl)methyl)-1H-pyrrolo[2,3-b]pyridin-6-yl)-1-oxoisoindolin-2-yl) piperidine-2,6-dione] | 100 to 500 | 10 to 100 | > 80 | 100 to 1000 | 20 to 40
O=C1CCC(N2Cc3cc(-c4cc(CN5CCCC5)c5ccn(CCO)c5n4)ccc3C2=O)C(=O)N1 (stereo not drawn) [Example 131, 3-(5-(1-(2-hydroxyethyl)-4-(pyrrolidin-1-ylmethyl)-1H-pyrrolo[2,3-b]pyridin-6-yl)-1-oxoisoindolin-2-yl) piperidine-2,6-dione] | 1000 to 5000 | 10 to 100 | 60 to 80 | > 10000 | < 20
O=C1CCC(N2Cc3cc(-c4cc(CN5CCCC5)c5c(ccn5C5CC5)n4)ccc3C2=O)C(=O)N1 (stereo not drawn) [Example 174, 3-(5-(1-cyclopropyl-7-(pyrrolidin-1-ylmethyl)-1H-pyrrolo[3,2-b]pyridin-5-yl)-1-oxoisoindolin-2-yl) piperidine-2,6-dione] | 500 to 1000 | 1 to 10 | 60 to 80 | 10 to 100 | 20 to 40
O=C1CCC(N2Cc3cc(-c4cc(CN5CCCC5)c5ccn(C6CCCCC6)c5n4)ccc3C2=O)C(=O)N1 (stereo not drawn) [Example 166, 3-(5-(1-cyclohexyl-4-(pyrrolidin-1-ylmethyl)-1H-pyrrolo[2,3-b]pyridin-6-yl)-1-oxoisoindolin-2-yl) piperidine-2,6-dione] | 100 to 500 | 1 to 10 | 40 to 60 | > 10000 | < 20
Cn1ccc2c(CN3Cc4ccccc4C3)cc(-c3ccc4c(c3)CN(C3CCC(=O)NC3=O)C4=O)nc21 (stereo not drawn) [Example 67, 3-(5-(4-(isoindolin-2-ylmethyl)-1-methyl-1H-pyrrolo[2,3-b]pyridin-6-yl)-1-oxoisoindolin-2-yl) piperidine-2,6-dione] | 500 to 1000 | 1 to 10 | 60 to 80 | > 10000 | 20 to 40
Cn1ccc2c(CN3CCCC3CO)cc(-c3ccc4c(c3)CN(C3CCC(=O)NC3=O)C4=O)nc21 (stereo not drawn) [Example 101, 3-(5-(4-((2-(hydroxymethyl)pyrrolidin-1-yl)methyl)-1-methyl-1H-pyrrolo[2,3-b]pyridin-6-yl)-1-oxoisoindolin-2-yl) piperidine-2,6-dione] | 100 to 500 | 1 to 10 | > 80 | > 10000 | < 20
CCn1ccc2c(CN3CCC3)cc(-c3ccc4c(c3)CN(C3CCC(=O)NC3=O)C4=O)nc21 (stereo not drawn) [Example 98, 3-(5-(4-(azetidin-1-ylmethyl)-1-ethyl-1H-pyrrolo[2,3-b]pyridin-6-yl)-1-oxoisoindolin-2-yl) piperidine-2,6-dione] | < 100 | 1 to 10 | > 80 | > 10000 | < 20
Cn1ccc2c(CN3CCSCC3)cc(-c3ccc4c(c3)CN(C3CCC(=O)NC3=O)C4=O)nc21 (stereo not drawn) [Example 62, 3-(5-(1-methyl-4-(thiomorpholinomethyl)-1H-pyrrolo[2,3-b]pyridin-6-yl)-1-oxoisoindolin-2-yl) piperidine-2,6-dione] | 100 to 500 | 1 to 10 | > 80 | > 10000 | < 20

— patent US20250214991A1 (Oncopia Therapeutics, Inc. d/b/a/ SK Life Science Labs, priority 2022, published 2025)
